Compound in experiment [1]: O=C(O)CC[C@H]1CC[C@@](c2cc(F)ccc2F)(S(=O)(=O)c2ccc(Cl)cc2)CC1 [MK0752]
As to the kind of experiment: area under dose-response curve of surviving fraction (unscaled, Aref=0) (surviving fraction x log10(nM)); higher = more resistant. The note with it: exposure time: 5 days; dose range 0.5-1000 nM. In a few lines:
(§1)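 Surviving fractions were fitted by 3-parameter logistic regression in the drc R package to give dose-response survival curves. They came from tumour cell lines treated for five days with eight inhibitor concentrations from 0.5 to 1000 nM and read by CellTiter-Glo luminescence against DMSO-only wells. The area under the curve is the unscaled activity area. It was calculated over log10 dose with Aref = 0.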

Compound in experiment [2]: T1, CCN(CC)CCNC(=O)c1c(C)[nH]c(/C=C2\C(=O)Nc3ccc(F)cc32)c1C [SUNITINIB]
As to the kind of experiment: surviving fraction relative to DMSO-only wells; higher = less growth inhibition. Particulars: exposure time: 5 days. The method in brief:
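Inhibitors were tested at 0.5, 1, 5, 10, 50, 100, 500 and 1000 nM, applied continuously for five days beginning 24 hours after log-phase tumour cells were seeded at 250–500 per well in 384-well plates. CellTiter-Glo luminescence served as the viability measure, expressed as surviving fraction against the median of DMSO-only wells. Each line, screened three times, was kept only with replicate Pearson r >0.7 and median Z' >0.3.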

Compound in experiment [3]: T1, SUNITINIB
Put plainly: area under dose-response curve of surviving fraction (unscaled, Aref=0) (surviving fraction x log10(nM)); higher = more resistant. Particulars: exposure time: 5 days; dose range 0.5-1000 nM. In a few lines: as §1

Here are results for 7 test systems from the supplement of paper PMC6045584.

± gives the standard deviation of the averaged measurements.

Consider C33A CERVIX, for which, in experiment [1], the “area under dose-response curve” value is 3.7. Besides, the surviving fraction turned out to be 1.1 ± 0.13 in experiment [2] (0.5 nM); 1.18 ± 0.12 in experiment [2] (5 nM); 1.12 ± 0.049 in experiment [2] (50 nM); 1.22 ± 0.1 in experiment [2] (100 nM); 0.647 ± 0.081 in experiment [2] (500 nM); 0.339 ± 0.019 in experiment [2] (1000 nM).
CAL72 BONE: in experiment [1], the “area under dose-response curve” value was determined as 3.63. Moreover, the surviving fraction was found to be 0.977 ± 0.016 in experiment [2] (0.5 nM); 0.995 ± 0.028 in experiment [2] (1 nM); 1.058 ± 0.0023 in experiment [2] (100 nM); 0.92 ± 0.0072 in experiment [2] (500 nM); 0.663 ± 0.044 in experiment [2] (1000 nM).
In the case of G292 BONE, the “area under dose-response curve” value in experiment [1] was 3.19; in experiment [3], 2.82. In addition, the surviving fraction came to 0.903 ± 0.05 in experiment [2] (0.5 nM); 0.947 ± 0.037 in experiment [2] (1 nM); 0.938 ± 0.048 in experiment [2] (5 nM); 0.904 ± 0.027 in experiment [2] (10 nM); 0.909 ± 0.032 in experiment [2] (50 nM); 0.887 ± 0.061 in experiment [2] (100 nM). Also, the surviving fraction in experiment [2] (500 nM) worked out at 0.553 ± 0.014; in experiment [2] (1000 nM), 0.306 ± 0.0087.
For HCC1395 BREAST, the “area under dose-response curve” value was 3.51 in experiment [1] and 3.19 in experiment [3]. For the same test system, the surviving fraction in experiment [2] (0.5 nM) was determined as 0.977 ± 0.037; in experiment [2] (1 nM), 0.829 ± 0.066; in experiment [2] (5 nM) it was 0.9396 ± 0.0017; in experiment [2] (10 nM) it was 0.969 ± 0.094; in experiment [2] (50 nM), 1.09 ± 0.11; in experiment [2] (100 nM), 1.06 ± 0.17. The surviving fraction in experiment [2] (500 nM) was found to be 0.971 ± 0.046; in experiment [2] (1000 nM) it was 1.01 ± 0.12.
HUO3N1 BONE: in experiment [3], the “area under dose-response curve” value worked out at 2.62. Besides, the surviving fraction was found to be 0.907 ± 0.082 in experiment [2] (0.5 nM); 0.88 ± 0.056 in experiment [2] (1 nM); 0.8743 ± 0.0058 in experiment [2] (5 nM); 0.82 ± 0.034 in experiment [2] (10 nM); 0.817 ± 0.035 in experiment [2] (50 nM); 0.801 ± 0.036 in experiment [2] (100 nM). Also, the surviving fraction in experiment [2] (500 nM) was found to be 0.64 ± 0.0053; in experiment [2] (1000 nM) it was 0.379 ± 0.016.
Regarding LNCAP PROSTATE, the “area under dose-response curve” value in experiment [1] was 3.22. Moreover, the surviving fraction in experiment [2] (0.5 nM) came out at 1.12 ± 0.06; in experiment [2] (1 nM), 1.19 ± 0.081; in experiment [2] (10 nM), 1.01 ± 0.12; in experiment [2] (50 nM), 1.08 ± 0.093; in experiment [2] (100 nM), 1.14 ± 0.037; in experiment [2] (500 nM), 0.854 ± 0.11. Further, in experiment [2] (1000 nM), the surviving fraction is 0.45 ± 0.033.
SCC003 HEADNECK: in experiment [3], the “area under dose-response curve” value was 2.83. The surviving fraction in experiment [2] (0.5 nM) was found to be 0.834 ± 0.071; in experiment [2] (1 nM) it was 0.807 ± 0.064; in experiment [2] (5 nM), 0.851 ± 0.036; in experiment [2] (10 nM), 0.784 ± 0.058; in experiment [2] (50 nM), 0.97 ± 0.07; in experiment [2] (100 nM), 0.919 ± 0.017. The figures for the surviving fraction in experiment [2] (500 nM) and in experiment [2] (1000 nM) were 0.495 ± 0.02 and 0.265 ± 0.034, respectively.
